Experimental data as given in article PMC8224630, “Cytotoxicity and Nitric Oxide Production Inhibitory Activities of Compounds Isolated from the Plant Pathogenic Fungus Curvularia sp” (Journal of Fungi, 2021).
Like-named read-outs stand apart in the source and are kept apart here.

What was measured:
[1] = system: nitric oxide (NO) production in RAW 264.7 cells; test: Nitric oxide (NO) production inhibitory assay, LPS-stimulated RAW 264.7 cells, Griess reagent; type: cell-based; settings: for inhibition at 100 µg/mL: read-out: % of NO Inhibition at 100 µg/mL; for IC50: read-out: NO Production Inhibition IC50
Procedure: This assay was performed as previously described. […] After 24 h, 100 µL of Griess reagent was added to the samples for 10 min. […] Additionally, the data are presented as the IC50, which was calculated with GraphPad Prism 6.0 software.

in vitro = settings: mouse
Procedure: (§1) Cell viability was measured by the MTT assay. RAW 264.7 cells were seeded at 4 × 10^4 cells/well in 96-well plates and incubated at 37 °C and 5% CO2 overnight. Cells were treated with different concentrations of tea extracts, including 3.125, 6.25, 12.5, 25, 50, and 100 µg/mL, for 24 h. After 24 h, cells were washed with PBS and incubated with 0.5 mM MTT reagent for 4 h. The detection of formazan at 570 nm was performed with a Biochrom EZ Read 400 ELISA microplate reader (Biochrom Ltd., Cambridge, UK). The data were calculated as IC50 values with GraphPad Prism 6.0 software.

[2] = Cytotoxicity assay against lung cancer A549 cells, MTT; settings: human, A549 lung cancer cells
Procedure: (§2) Lung cancer A549 and colorectal cancer SW480 cells were maintained with Dulbecco’s modified Eagle’s medium (DMEM) containing 10% fetal bovine serum (FBS) and 1% penicillin/streptomycin. Leukemic K562 cells were cultured in RPMI-1640 supplemented with 10% fetal bovine serum (FBS) and 1% penicillin/streptomycin. All cells were cultured in 96-well plates at 37 °C in 5% CO2, followed by treatment with the sample for 24 h. After the incubation period, 0.5 mg/mL MTT was added to the cells and left for 4 h. The formazan was dissolved in DMSO and measured at 570 nm using Biochrom EZ Read 400 ELISA microplate reader (Biochrom Ltd., Cambridge, UK).

lung cancer A549 cells = test: as above; settings: Homo sapiens, A549, 24 h, read-out: IC50 cytotoxicity A549 (Lung Cancer)
Procedure: as §2

leukemic K562 cells = test: Cytotoxicity assay against leukemic K562 cells, MTT; settings: Homo sapiens, K562, 24 h, read-out: IC50 cytotoxicity K562 (Leukemic Cells)
Procedure: as §2

[3] = as above; settings: human, K562 leukemic cells
Procedure: as §2

[4] = Cytotoxicity assay in mammalian cells (RAW 264.7), MTT; settings: mouse, RAW 264.7 cells
Procedure: as §1

[5] = system: colorectal cancer SW480 cells; test: Cytotoxicity assay against colorectal cancer SW480 cells, MTT; settings: Homo sapiens, SW480, 24 h, read-out: IC50 cytotoxicity SW480 (Colorectal Cancer)
Procedure: as §2

[6] = as above; settings: human, SW480 colorectal cancer cells
Procedure: as §2

[7] = system: lung cancer (A549) cell line; parameters: method as in doi:10.1007/s10600-015-1259-y; settings: 30 µg/mL; cited from earlier work
[8] = Mus musculus, RAW264.7, 100 µg/mL, LPS 1 µg/mL, 24 h
[9] = Mus musculus, RAW264.7, LPS 1 µg/mL, 24 h

C/C=C(\C)[C@@H](OC(C)=O)[C@@H](C)C1=CC(=O)C2=C(O[C@]3(C)CC[C@H]4O[C@@H](C(C)(C)O)CC[C@]4(C)[C@H]3[C@@H]2O)C1=O [Compound 3, stemphone]
inhibition at 100 µg/mL ([1]; Mus musculus, RAW264.7, 24 h): 73.41 ± 0.44% | IC50 ([1]; Mus musculus, RAW264.7, 24 h): 32.8 µM | viability at 24 h, 100 µg/mL (in vitro): 71.4 ± 2.67%

COc1ccc2c(c1)c(CC(=O)O)c(C)n2C(=O)c1ccc(Cl)cc1 [Indomethacin, reference compound]
inhibition at 100 µg/mL [1, 8]: 77.45 ± 0.28% | IC50 [1, 9]: 73.4 µM

CC[C@H](C)[C@@H](OC(C)=O)[C@@H](C)C1=CC(=O)C2=C(O[C@]3(C)CC[C@H]4O[C@@H](C(C)(C)O)CC[C@]4(C)[C@H]3[C@@H]2O)C1=O [Compound 2, cochlioquinone A]
viability at 24 h, 6.25 µg/mL [2]: 73.1 ± 1.09% | viability at 24 h, 12.5 µg/mL [2]: 23.1 ± 1.84% | viability at 24 h, 25 µg/mL [2]: 17.9 ± 1.93% | viability at 24 h, 50 µg/mL [2]: 14.8 ± 2.54% | viability at 24 h, 100 µg/mL [2]: 13.4 ± 0.48% | IC50 (lung cancer A549 cells): 14.3 µM | IC50 (leukemic K562 cells): 17.6 µM | viability at 24 h, 6.25 µg/mL [3]: 71 ± 1.69% | viability at 24 h, 12.5 µg/mL [3]: 38.4 ± 3.18% | viability at 24 h, 25 µg/mL [3]: 21 ± 2.61% | viability at 24 h, 50 µg/mL [3]: 13.3 ± 0.89% | viability at 24 h, 100 µg/mL [3]: 12.5 ± 1.24% | IC50 at 24 h [4]: < 11.7 µM | viability at 24 h, 6.25 µg/mL [4]: 28.5 ± 1.98% | viability at 24 h, 12.5 µg/mL [4]: 16.6 ± 0.52% | viability at 24 h, 25 µg/mL [4]: 15 ± 0.29% | viability at 24 h, 50 µg/mL [4]: 11.67 ± 0.08% | viability at 24 h, 100 µg/mL [4]: 10.8 ± 0.09% | IC50 [5]: < 11.7 µM | viability at 24 h, 6.25 µg/mL [6]: 30.8 ± 0.4% | viability at 24 h, 12.5 µg/mL [6]: 23.4 ± 0.25% | viability at 24 h, 25 µg/mL [6]: 17.6 ± 0.7% | viability at 24 h, 50 µg/mL [6]: 15.6 ± 0.77% | viability at 24 h, 100 µg/mL [6]: 14.9 ± 0.57%

CC[C@H](C)[C@@H](OC(C)=O)[C@@H](C)C1=CC(=O)C2=C(O[C@]3(C)CC[C@H]4O[C@@H](C(C)(C)O)CC[C@]4(C)C3=C2)C1=O [Compound 4, anhydrocochlioquinone A]
viability at 24 h, 6.25 µg/mL [2]: 12.4 ± 0.17% | viability at 24 h, 12.5 µg/mL [2]: 11.6 ± 1.05% | viability at 24 h, 25 µg/mL [2]: 10.2 ± 0.17% | viability at 24 h, 50 µg/mL [2]: 9.35 ± 0.52% | viability at 24 h, 100 µg/mL [2]: 8.4 ± 0.58% | IC50 (lung cancer A549 cells): < 12.1 µM | IC50 (leukemic K562 cells): < 12.1 µM | viability at 24 h, 6.25 µg/mL [3]: 19.5 ± 2.62% | viability at 24 h, 12.5 µg/mL [3]: 14 ± 2.31% | viability at 24 h, 25 µg/mL [3]: 12.9 ± 0.34% | viability at 24 h, 50 µg/mL [3]: 11.3 ± 0.4% | viability at 24 h, 100 µg/mL [3]: 10.6 ± 0.2% | IC50 at 24 h [4]: < 12.1 µM | viability at 24 h, 6.25 µg/mL [4]: 14.3 ± 0.73% | viability at 24 h, 12.5 µg/mL [4]: 12.4 ± 0.47% | viability at 24 h, 25 µg/mL [4]: 12.1 ± 0.42% | viability at 24 h, 50 µg/mL [4]: 12.8 ± 0.7% | viability at 24 h, 100 µg/mL [4]: 11.1 ± 0.43% | inhibition ratio, cytotoxicity against A549 [7]: 41% | IC50 [5]: < 12.1 µM | viability at 24 h, 6.25 µg/mL [6]: 17.3 ± 0.33% | viability at 24 h, 12.5 µg/mL [6]: 15.6 ± 0.39% | viability at 24 h, 25 µg/mL [6]: 15.4 ± 0.42% | viability at 24 h, 50 µg/mL [6]: 14.7 ± 0.24% | viability at 24 h, 100 µg/mL [6]: 14.4 ± 0.4%

C/C1=C\C[C@]2(C)C(=O)C(O)=C([C@H](C)CO)[C@H]2C/C=C(\C)[C@@H](O)CC/C(C)=C/CC1 [Compound 6, terpestacin]
NO Production Inhibition IC50 ([1]; LPS 1 µg/mL, 24 h): inactive | inhibition at 100 µg/mL [1, 8]: 41 ± 3.36% | viability at 24 h, 100 µg/mL [2]: 92 ± 3.75% | viability at 24 h, 100 µg/mL [3]: 99.2 ± 3.84% | viability at 24 h, 100 µg/mL [4]: 99.3 ± 2.51% | viability at 24 h, 100 µg/mL [6]: 97.7 ± 1.04%

CCCC1C2=C(CCC3C(=O)OC(=O)C3=CC1CC)C(=O)OC2=O (stereo not shown) [Compound 5, curvulariahawadride]
IC50 ([1]; LPS 1 µg/mL, 24 h): 12.8 µM | IC50 ([1]; Mus musculus, RAW264.7, 24 h, LPS 1 µg/mL, 24 h): 12.9 µM | inhibition at 100 µg/mL [1, 8]: 74 ± 1.14%

CC[C@H](C)[C@@H](OC(C)=O)[C@@H](C)C1=C(N)C(=O)C2=C(O[C@]3(C)CC[C@H]4O[C@@H](C(C)(C)O)CC[C@]4(C)[C@H]3[C@@H]2O)C1=O [Compound 1, cochlioquinone N]
inhibition at 100 µg/mL [1, 8]: 51.3 ± 1.65% | IC50 [1, 9]: 53.7 µM | viability at 24 h, 100 µg/mL [2]: 88.5 ± 1.19% | viability at 24 h, 100 µg/mL [3]: 81.1 ± 3.8% | viability at 24 h, 100 µg/mL [4]: 97.14 ± 0.81% | melting point: 185 to 187 °C | viability at 24 h, 100 µg/mL [6]: 82.6 ± 1.68%
